# Data reported in patent publication US20050014849A1, “Antifungal phenylethylene” (priority 2001, published 2005).
# How the values were obtained:
# bovine brain tubulin [1] = system: T1, bovine brain tubulin; test: Tubulin polymerization assay; format: biochemical; conditions: 1 mg/ml tubulin; 20 min incubation at 30° C.
# T1 construct: Electrophoretically homogeneous bovine brain tubulin [12]
# Experimental: (§1) Electrophoretically homogeneous bovine brain tubulin [12] was used in studies to evaluate the effects of TMPN on in vitro tubulin polymerization and the binding of […] (Dupont-NEN) to tubulin. These studies were performed as described previously. In the polymerization assay, varying drug concentrations were added to 1 mg/ml tubulin to determine the amount of drug that would inhibit the extent of the reaction by 50% (20 min incubation at 30° C.) (IC50 value). In the colchicine binding assay, the effect of varying drug concentrations on the binding of 2 μg/ml colchicine to 100 μg/ml tubulin was measured after 10 min at 37° C. (control reaction about 50% complete).
# bovine brain tubulin [2] = system: T1, bovine brain tubulin; test: Colchicine binding assay; conditions: 5 μM (combretastatin A-4 1.6 μg/ml; TMPN 1.2 μg/ml); 10 min at 37° C.
# Experimental: as §1
smiles,measurement,setting,value
"COc1ccc(/C=C\c2cc(OC)c(OC)c(OC)c2)cc1O [combretastatin A-4, reference compound]",IC50 for inhibition of the extent of tubulin assembly,bovine brain tubulin [1],0.32 ± 0.02 µg/mL
same,inhibition of [^3H]colchicine binding to tubulin,bovine brain tubulin [2],98+1%
